Measured values published in patent publication US8759295B2, “Peptide-peptidase inhibitor conjugates and methods of using same” (Amylin Pharmaceuticals, LLC, priority 2006, dated 2014).
Starred links: 1 amine or outer side, 2 acyl side, 3 side chain; linkers in the order of their positions; H or OH if unused. Non-standard residues stand in square brackets, D forms with d. Residues, ends and D or L forms follow the SMILES beside them. *: point of attachment. Pyrrolidine(2S-CN) = N#C[C@@H]1CCCN1*; εLys = N[C@@H](CCCCN[*:1])C(=O)[*:2]; AEEA = NCCOCCOCC(=O)O

What was measured:
plasma carboxypeptidase = experiment: Carboxypeptidase activity assay in human plasma, PYY(3-35) formation; format: biochemical; conditions: for inhibition of formation of PYY(3-35): 0.5 mM, human plasma
Method: Carboxypeptidase activity assays were performed in the presence of various agents to test for carboxypeptidase inhibitor activity of the agents.
The remainder of the sample was placed in an incubator at 37° C., mixing at 600 RPM for sixty minutes. At 10 minute intervals, a 100 μL sample of the mixture was removed and transferred to a separate microcentrifuge tubes. Following the transfer of the 100 μL sample at the zero time point and each 10 minute interval, each collected sample was extracted by slow addition of 100 μl cold 0.2% formic acid:acetonitrile, while mixing. After addition of the acetonitrile solution, the sample was vortex mixed at high speed for 15 seconds. The extracted samples were stored at −20° C. for at least 20 minutes and then centrifuged at 11,000×g for 10 minutes at 5° C. The supernatant of each sample was transferred to a new microcentrifuge tube, centrifuged again, and finally transferred for LC/MS analysis. The MS analysis was a Q1 single ion monitoring method that detects the most intense ion of the parent molecule and the peptide fragment of interest.

NIH/Swiss mice = experiment: Oral glucose tolerance test (OGTT), glucose lowering; conditions: IP, 2 hour fasted mice
[1] = human, kidney or brush border membranes, 4 h, pH 7.4
Method: The tubes were incubated in VorTemp 56™ (Eurotech Labs, UK) at 37° C. vortexed at 500 RPM. At time points of 0, 1, 2, 3, 4, and 5 hours, 200 μl STOP solution (50% ACN, 1% formic acid) was added to a given tube, and the samples were allowed to incubate until the end of the experiment. The samples were collected after 5 hours, centrifuged, and 200 μl of the supernatants were transferred into mass spectrometry vials. The intensities of the mother ions in each vial were analyzed with API 150EX™ mass spectrometer (Applied Biosystems, Foster City, Calif.) and quantified using the ANALYST™ program.
The hKBBM assay was also performed in the presence of valinepyrrolidide, a DPP-IV inhibitor.

[2] = test system: Dahl salt-sensitive (DSS) male rats; experiment: Congestive heart failure (CHF) in vivo assay; conditions: week 5, high-salt diet, 10 μg/kg/day sc infusion
Method: In this assay, Dahl salt-sensitive (DSS) male rats were weaned at 21 days of age, maintained on a low-salt (LS) diet (0.2% NaCl) for 2 weeks. Rats were anesthetized with ketamine/xylazine (50 mg/kg/10 mg/kg, IP) and telemetry transmitters (Data Sciences, Inc.) were inserted to the aortic artery when rats were at 5 weeks of age. After surgery, the rats were allowed 10 days to recuperate before their BP (systolic and diastolic pressures) was recorded.
HS control animals (n=10 rats) were administered vehicle (50% DMSO) and fed HS in the same manner. LS control animals (n=5 rats) were maintained on the LS diet.

[3] = molecular target: T1, human GIP receptor (HEK-GIPR membranes) (Homo sapiens, UniProt P48546); experiment: GIP receptor binding displacement assay (RBA); conditions: read-out: GIP RBA % inhibition at 10 nM; 10 nM conjugate, 30 pM 125I-GIP
T1 construct: expressed in transfected cells
T1 sequence (P48546 22-466): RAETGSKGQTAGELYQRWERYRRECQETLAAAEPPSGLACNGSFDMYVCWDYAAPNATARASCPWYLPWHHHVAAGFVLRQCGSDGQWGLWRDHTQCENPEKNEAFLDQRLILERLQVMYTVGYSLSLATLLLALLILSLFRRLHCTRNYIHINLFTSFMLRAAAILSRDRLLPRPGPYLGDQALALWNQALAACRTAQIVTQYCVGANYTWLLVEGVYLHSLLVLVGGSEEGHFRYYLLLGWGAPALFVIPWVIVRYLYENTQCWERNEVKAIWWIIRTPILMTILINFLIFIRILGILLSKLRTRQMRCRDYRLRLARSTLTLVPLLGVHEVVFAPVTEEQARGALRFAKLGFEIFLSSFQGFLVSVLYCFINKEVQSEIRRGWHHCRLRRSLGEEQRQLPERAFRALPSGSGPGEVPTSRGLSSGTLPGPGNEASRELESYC
Method: Membrane fractions were prepared from confluent cell cultures of HEK-GIPR, snap frozen, and stored at −80° C. until use. […] Reactions were allowed to proceed to equilibrium for 90 minutes at room temperature with constant shaking. The reaction mixtures were then filtered through 96-well glass fiber filter plates separating bound and unbound fractions of radioligand.

Recombinant DPP-IV = Recombinant DPP-IV (Homo sapiens, UniProt P27487); experiment: DPP-IV inhibition assay with chromogenic substrate; format: biochemical; parameters: purchased Chemicon International, Inc., Temecula, Calif; conditions: mean SEM of at least three determinations
Method: The reactions were initiated by adding 1 μl DPP-IV enzyme (0.05 mU) into each well and the absorbance at 410 nm was measured with 20-sec intervals over a 30-min period using a SpectraMax plate reader (Molecular Devices, Corp., Sunnyvale, Calif.). The velocities of each reaction at different inhibitor concentrations were calculated and the reciprocal velocities were plotted against inhibitor concentrations in Dixon graphs. The IC50 values of reaction velocities were calculated through fitting the plots with linear equation.
The IC50 (nM) values in Table 5 are expressed as the mean SEM of at least three independent determinations.

Chain of Recombinant DPP-IV (P27487 whole entry, species assumed): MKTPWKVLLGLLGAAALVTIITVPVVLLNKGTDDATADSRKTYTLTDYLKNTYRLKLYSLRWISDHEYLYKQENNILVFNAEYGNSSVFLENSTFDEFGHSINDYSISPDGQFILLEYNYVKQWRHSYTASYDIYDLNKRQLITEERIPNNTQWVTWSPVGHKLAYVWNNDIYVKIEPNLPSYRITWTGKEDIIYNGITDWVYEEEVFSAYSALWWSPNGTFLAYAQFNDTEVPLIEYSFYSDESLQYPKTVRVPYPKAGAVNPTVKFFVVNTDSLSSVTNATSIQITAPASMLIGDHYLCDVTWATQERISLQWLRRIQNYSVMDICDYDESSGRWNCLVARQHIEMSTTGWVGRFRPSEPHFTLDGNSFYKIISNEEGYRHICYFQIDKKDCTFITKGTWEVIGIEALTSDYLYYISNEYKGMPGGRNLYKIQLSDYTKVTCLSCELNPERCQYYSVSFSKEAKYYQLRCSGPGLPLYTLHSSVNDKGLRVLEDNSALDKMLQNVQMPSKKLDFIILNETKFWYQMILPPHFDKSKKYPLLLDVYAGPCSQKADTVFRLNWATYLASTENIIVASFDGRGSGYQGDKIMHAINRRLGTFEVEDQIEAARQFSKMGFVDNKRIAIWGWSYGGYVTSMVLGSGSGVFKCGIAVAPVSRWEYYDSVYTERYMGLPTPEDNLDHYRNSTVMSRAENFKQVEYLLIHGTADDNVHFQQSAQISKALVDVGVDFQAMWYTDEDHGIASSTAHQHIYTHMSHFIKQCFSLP

Molecule: NCCc1ccc(S(=O)(=O)F)cc1 [AEBSF, 4-(2-aminoethyl)-benzenesulfonylfluoride, reference compound]
- inhibition of plasma carboxypeptidase activity (plasma carboxypeptidase; protease inhibitor at 1 mM): inhibited

Molecule: CC[C@H](C)[C@H](NC(=O)[C@H](Cc1ccccc1)NC(=O)[C@H](CCC(=O)O)NC(=O)[C@H](CCCCN)NC(=O)[C@H](C)NC(=O)[C@H](C)NC(=O)[C@H](CCC(N)=O)NC(=O)CNC(=O)[C@H](CCC(=O)O)NC(=O)[C@H](CC(C)C)NC(=O)[C@H](Cc1ccc(O)cc1)NC(=O)[C@H](CO)NC(=O)[C@H](CO)NC(=O)[C@@H](NC(=O)[C@H](CC(=O)O)NC(=O)[C@H](CO)NC(=O)[C@@H](NC(=O)[C@H](Cc1ccccc1)NC(=O)[C@@H](NC(=O)CNC(=O)[C@H](CCC(=O)O)NC(=O)[C@H](C)NC(=O)[C@H](Cc1c[nH]cn1)NC(=O)COCCOCCNC(=O)[C@@H]1CCCN1C(=O)[C@H](C)NC(CCc1ccccc1)C(=O)O)[C@@H](C)O)[C@@H](C)O)C(C)C)C(=O)N[C@@H](C)C(=O)N[C@@H](Cc1c[nH]c2ccccc12)C(=O)N[C@@H](CC(C)C)C(=O)N[C@H](C(=O)N[C@@H](CCCCN)C(=O)NCC(=O)N[C@@H](CCCNC(=N)N)C(N)=O)C(C)C (stereo partly drawn) [Compound 4983, (R,S)-1-[N^2-(1-carboxy-3-phenylpropyl)-L-ala]-L-pro-8-amino-3,6-dioxaoctanoyl-GLP-1-(7-36) amide]
- glucose lowering in OGTT (FIGS. 7, 8) (NIH/Swiss mice): retain the glucose-lowering activity of GLP-1
- intact conjugate compound present [1]: greater than 80%

Molecule: CC[C@H](C)[C@H](NC(=O)[C@H](Cc1ccccc1)NC(=O)[C@H](CC(C)C)NC(=O)[C@H](CCCNC(=N)N)NC(=O)[C@@H](NC(=O)[C@H](C)NC(=O)[C@H](CCC(=O)O)NC(=O)[C@H](CCC(=O)O)NC(=O)[C@H](CCC(=O)O)NC(=O)[C@H](CC(C)C)NC(=O)[C@H](CCC(N)=O)NC(=O)[C@H](CCCCN)NC(=O)[C@H](CO)NC(=O)[C@H](CC(C)C)NC(=O)[C@H](CC(=O)O)NC(=O)[C@H](CO)NC(=O)[C@@H](NC(=O)[C@H](Cc1ccccc1)NC(=O)[C@@H](NC(=O)CNC(=O)[C@H](CCC(=O)O)NC(=O)CNC(=O)[C@@H](N)Cc1c[nH]cn1)[C@@H](C)O)[C@@H](C)O)C(C)C)C(=O)N[C@@H](CCC(=O)O)C(=O)N[C@@H](Cc1c[nH]c2ccccc12)C(=O)N[C@@H](CC(C)C)C(=O)N[C@@H](CCCCN)C(=O)N[C@@H](CCC(N)=O)C(=O)NCC(=O)NCC(=O)N1CCC[C@H]1C(=O)N[C@@H](CO)C(=O)N[C@@H](CCCCN)C(=O)N[C@@H](CCC(=O)O)C(=O)N[C@H](C(=O)N[C@H](C(=O)N[C@@H](CO)C(=O)NCCOCCOCCOCC(=O)NCCOCCOCC(=O)NCCCC[C@H](NC(CCc1ccccc1)C(=O)O)C(=O)N1CCC[C@H]1C(=O)O)[C@@H](C)CC)[C@@H](C)CC (stereo partly shown) [Compound 5715]
- mean diastolic blood pressure [2]: 112 mmHg
- mean heart rate [2]: 381
- mean systolic blood pressure [2]: 161 mmHg

Molecule: CC[C@H](C)[C@H](NC(=O)[C@H](CO)NC(=O)[C@H](Cc1ccc(O)cc1)NC(=O)[C@H](CC(=O)O)NC(=O)[C@H](CO)NC(=O)[C@@H](NC(=O)[C@H](Cc1ccccc1)NC(=O)[C@@H](NC(=O)CNC(=O)[C@H](CCC(=O)O)NC(=O)[C@H](C)NC(=O)[C@H](Cc1ccc(O)cc1)NC(=O)COCCOCCNC(=O)COCCOCCNC(=O)CC[C@H](N)C(=O)N1CCC[C@H]1C#N)[C@@H](C)O)[C@@H](C)CC)C(=O)N[C@@H](C)C(=O)N[C@@H](CCSC)C(=O)N[C@@H](CC(=O)O)C(=O)N[C@@H](CCCCN)C(=O)N[C@H](C(=O)N[C@@H](Cc1c[nH]cn1)C(=O)N[C@@H](CCC(N)=O)C(=O)N[C@@H](CCC(N)=O)C(=O)N[C@@H](CC(=O)O)C(=O)N[C@@H](Cc1ccccc1)C(=O)N[C@H](C(=O)N[C@@H](CC(N)=O)C(=O)N[C@@H](Cc1c[nH]c2ccccc12)C(=O)N[C@@H](CC(C)C)C(=O)N[C@@H](CC(C)C)C(=O)N[C@@H](C)C(=O)N[C@@H](CCC(N)=O)C(=O)N[C@@H](CCCCN)C(=O)O)C(C)C)[C@@H](C)CC [N-(γ-L-Glu-2-(S)-cyanopyrrolidyl)-Ado-Ado) GIP(1-30)]
- inhibition at 0.01 µM [3]: 32%
- IC50 (Recombinant DPP-IV): 64 ± 8 nM

Molecule: CNC(Cc1ccc(O)cc1)C(N)=O (stereo not shown) [N-methyl-Tyr-NH2]
- inhibition of formation of PYY(3-35) (plasma carboxypeptidase): did not inhibit

Molecule: CC[C@H](C)[C@H](NC(=O)[C@H](CO)NC(=O)[C@H](Cc1ccc(O)cc1)NC(=O)[C@H](CC(=O)O)NC(=O)[C@H](CO)NC(=O)[C@@H](NC(=O)[C@H](Cc1ccccc1)NC(=O)[C@@H](NC(=O)CNC(=O)[C@H](CCC(=O)O)NC(=O)[C@H](C)NC(=O)[C@@H](N)Cc1ccc(O)cc1)[C@@H](C)O)[C@@H](C)CC)C(=O)N[C@@H](C)C(=O)N[C@@H](CC(C)C)C(=O)N[C@@H](CC(=O)O)C(=O)N[C@@H](CCCCN)C(=O)N[C@H](C(=O)N[C@@H](Cc1c[nH]cn1)C(=O)N[C@@H](CCC(N)=O)C(=O)N[C@@H](CCC(N)=O)C(=O)N[C@@H](CC(=O)O)C(=O)N[C@@H](Cc1ccccc1)C(=O)N[C@H](C(=O)N[C@@H](CC(N)=O)C(=O)N[C@@H](Cc1c[nH]c2ccccc12)C(=O)N[C@@H](CC(C)C)C(=O)N[C@@H](CC(C)C)C(=O)N[C@@H](C)C(=O)N[C@@H](CCC(N)=O)C(=O)N[C@@H](CCCCN)C(=O)NCCOCCOCC(=O)NCCCC[C@H](N)C(=O)N1CCC[C@H]1C#N)C(C)C)[C@@H](C)CC [[Leu^14]GIP(1-30)-Ado-Lys-N-ε-(2-(S)-cyano pyrrolidyl)] (H-YAEGTFISDYSIALDKIHQQDFVNWLLAQK[AEEA][εLys]-{Pyrrolidine(2S-CN)})
- inhibition at 0.01 µM [3]: 100%
- IC50 (Recombinant DPP-IV): 109 ± 1 nM

Molecule: ^36N-methyl-Tyr-amide-PYY(22-36) (ASLRHYLNLVTRQRY; HELM PEPTIDE1{A.S.L.R.H.Y.L.N.L.V.T.R.Q.R.[meY].[am]}$$$$V2.0; N-terminus assumed; SMILES CC(C)C[C@H](NC(=O)[C@H](CO)NC(=O)[C@H](C)N)C(=O)N[C@@H](CCCNC(=N)N)C(=O)N[C@@H](Cc1c[nH]cn1)C(=O)N[C@@H](Cc1ccc(O)cc1)C(=O)N[C@@H](CC(C)C)C(=O)N[C@@H](CC(N)=O)C(=O)N[C@@H](CC(C)C)C(=O)N[C@H](C(=O)N[C@H](C(=O)N[C@@H](CCCNC(=N)N)C(=O)N[C@@H](CCC(N)=O)C(=O)N[C@@H](CCCNC(=N)N)C(=O)N(C)[C@@H](Cc1ccc(O)cc1)C(N)=O)[C@@H](C)O)C(C)C) [N-terminal truncation of ^36N-methyl-Tyr-amide-PYY(3-36)]
- inhibition of formation of PYY(3-35) (plasma carboxypeptidase): measurable but lower activity

Molecule: ^36N-methyl-Tyr-amide-PYY(34-36) (QRY; HELM PEPTIDE1{Q.R.[meY].[am]}$$$$V2.0; N-terminus assumed; SMILES CN(C(=O)[C@H](CCCNC(=N)N)NC(=O)[C@@H](N)CCC(N)=O)[C@@H](Cc1ccc(O)cc1)C(N)=O) [N-terminal truncation of ^36N-methyl-Tyr-amide-PYY(3-36)]
- inhibition of formation of PYY(3-35) (plasma carboxypeptidase): did not inhibit
